Patent US20060014750A1, “Pharmaceutical compositions for the treatment of CNS and other disorders” (Pfizer Inc, priority 2001, published 2006)
Structures can show the parent of a compound that is named as a salt.

| SMILES | melting point [°C] |
| --- | --- |
| O=C(Oc1ccccc1)N1CCN2CCC1CC2 | 254.8 |
| O=C(Oc1ccc2cc(Br)ccc2c1)N1CCN2CCC1CC2 | 174.2 |
| O=C(Nc1ccc(Br)cc1)N1CCN2CCC1CC2 (as salt: HCl) | 228 to 231 |
| S=C(Oc1ccccc1)N1CCN2CCC1CC2 (as salt: hydrochloride) | 272.2 |
| O=C(OCc1ccccc1)N1CCN2CCC1CC2 (as salt: hydrochloride) | 235.6 |
| COC(=O)c1ccc(OC(=O)N2CCN3CCC2CC3)cc1 (as salt: hydrochloride) | 237.4 |
| COC(=O)N1CCN2CCC1CC2 (as salt: hydrochloride) | 198.7 |
| CC(C)COC(=O)N1CCN2CCC1CC2 (as salt: hydrochloride) | 266.5 |
| CCCCCCCCOC(=O)N1CCN2CCC1CC2 (as salt: hydrochloride) | 217.5 |
| CCOC(=O)N1CCN2CCC1CC2 (as salt: hydrochloride) | 207.7 |
| CCCOC(=O)N1CCN2CCC1CC2 (as salt: hydrochloride) | 242 |
| N#Cc1ccc(OC(=O)N2CCN3CCC2CC3)cc1 (as salt: hydrochloride) | 289.8 |
| O=C(Oc1ccc(OCc2ccccc2)cc1)N1CCN2CCC1CC2 (as salt: hydrochloride) | 278.5 |
| O=C(Oc1ccc(C2CCCCC2)cc1)N1CCN2CCC1CC2 (as salt: hydrochloride) | 294.1 |
| CSc1ccc(OC(=O)N2CCN3CCC2CC3)cc1 (as salt: hydrochloride) | 235.2 |
| O=C(Oc1ccc(C2CCc3ccccc32)cc1)N1CCN2CCC1CC2 (stereo not shown) (as salt: hydrochloride) | 168.7 |
| O=C(Oc1ccc(I)cc1)N1CCN2CCC1CC2 (as salt: hydrochloride) | 280.2 |
| O=C(Oc1ccc(Cc2ccccc2)cc1)N1CCN2CCC1CC2 (as salt: hydrochloride) | 221.8 |
| CC(C)(C)c1ccc(OC(=O)N2CCN3CCC2CC3)cc1 (as salt: hydrochloride) | 289.7 |
| COc1ccc(OC(=O)N2CCN3CCC2CC3)cc1 (as salt: hydrochloride) | 269.7 |
| O=C(Oc1ccc(-n2ccnc2)cc1)N1CCN2CCC1CC2 (as salt: hydrochloride) | > 300 |
| O=C(Oc1ccc(Oc2ccccc2)cc1)N1CCN2CCC1CC2 (as salt: hydrochloride) | 238 |
| O=C(Oc1ccc(C(F)(F)F)cc1)N1CCN2CCC1CC2 (as salt: hydrochloride) | 260.7 |
| O=C(Oc1ccccc1Br)N1CCN2CCC1CC2 (as salt: hydrochloride) | 267.2 |
| O=C(Oc1ccccc1Cl)N1CCN2CCC1CC2 (as salt: hydrochloride) | 251.2 |
| O=C(Oc1ccccc1I)N1CCN2CCC1CC2 (as salt: hydrochloride) | 254 |
| N#Cc1ccc(-c2ccc(OC(=O)N3CCN4CCC3CC4)cc2)cc1 (as salt: hydrochloride) | > 300 |
| O=C(Oc1ccc(-c2ccc(Br)cc2)cc1)N1CCN2CCC1CC2 (as salt: hydrochloride) | > 300 |

| SMILES | melting point [°C] |
| --- | --- |
| O=C(Oc1ccc(-n2cncn2)cc1)N1CCN2CCC1CC2 (as salt: hydrochloride) | 253.1 |
| O=C(Oc1ccc(F)cc1)N1CCN2CCC1CC2 (as salt: hydrochloride) | 276.8 |
| CC(=O)N1CCN(c2ccc(OC(=O)N3CCN4CCC3CC4)cc2)CC1 (as salt: hydrochloride) | 166.6 |
| O=C(Oc1ccccc1C(F)(F)F)N1CCN2CCC1CC2 (as salt: hydrochloride) | 228.7 |
| O=C(Oc1ccccc1-c1nc2ccccc2o1)N1CCN2CCC1CC2 (as salt: hydrochloride) | 259.9 |
| O=C(Oc1ccccc1-c1nc2ccccc2s1)N1CCN2CCC1CC2 (as salt: hydrochloride) | 247.6 |
| O=C(Oc1cccc(F)c1)N1CCN2CCC1CC2 (as salt: hydrochloride) | 228.2 |
| O=C(Oc1cccc(Br)c1)N1CCN2CCC1CC2 (as salt: hydrochloride) | 224.5 |
| COc1cccc(OC(=O)N2CCN3CCC2CC3)c1 (as salt: hydrochloride) | 204.3 |
| Cc1cccc(OC(=O)N2CCN3CCC2CC3)c1 (as salt: hydrochloride) | 249.2 |
| O=C(Oc1ccc([N+](=O)[O-])cc1)N1CCN2CCC1CC2 (as salt: hydrochloride) | 267.5 |
| CC(C)(C)c1cccc(OC(=O)N2CCN3CCC2CC3)c1 (as salt: hydrochloride) | 283.4 |
| O=C(Oc1cccc(C(F)(F)F)c1)N1CCN2CCC1CC2 (as salt: hydrochloride) | 229.3 |
| O=C(Oc1ccccc1Cc1ccccc1)N1CCN2CCC1CC2 (as salt: hydrochloride) | 214 |
| O=C(Oc1cccc(I)c1)N1CCN2CCC1CC2 (as salt: hydrochloride) | 243.8 |
| O=C(c1ccccc1)c1cccc(OC(=O)N2CCN3CCC2CC3)c1 (as salt: hydrochloride) | 241.7 |
| O=C(Oc1cccc(Oc2ccccc2)c1)N1CCN2CCC1CC2 (as salt: hydrochloride) | 204.8 |
| O=C(Oc1cccc([N+](=O)[O-])c1)N1CCN2CCC1CC2 (as salt: hydrochloride) | 205.1 |
| Cc1cc(OC(=O)N2CCN3CCC2CC3)cc(C)c1Br (as salt: hydrochloride) | 239.5 |
| O=C(Oc1ccccc1[N+](=O)[O-])N1CCN2CCC1CC2 (as salt: hydrochloride) | 260.4 |
| Cc1cc(OC(=O)N2CCN3CCC2CC3)ccc1Br (as salt: hydrochloride) | 212.5 |
| O=C(Oc1ccc(Br)c(Cl)c1)N1CCN2CCC1CC2 (as salt: hydrochloride) | 234.7 |
| Cc1ccc(OC(=O)N2CCN3CCC2CC3)cc1C (as salt: hydrochloride) | 246 |
| O=C(Oc1ccc(Cl)c(Cl)c1)N1CCN2CCC1CC2 (as salt: hydrochloride) | 260.2 |
| O=C(Oc1cccc(-c2cccnc2)c1)N1CCN2CCC1CC2 (as salt: hydrochloride) | 210.2 |
| O=C(Oc1ccc2ccccc2c1)N1CCN2CCC1CC2 (as salt: hydrochloride) | 255.5 |
| O=C(Oc1ccc(Cl)cc1)N1CCN2CCC1CC2 (as salt: hydrochloride) | 257.5 |
